Source: patent US20260078105A1, “Novel Aminocarboxymuconate Semialdehyde Decarboxylase Inhibitors” (OrsoBio, Inc., priority 2023, published 2026)

target: T1, ACMSD (Mus musculus, UniProt Q8R519); assay: Quinolinic acid (QA) levels in primary mouse hepatocytes by LC-MS/MS, as indicator of ACMSD inhibition; assay type: cell-based; details: 3 μM compound, six hours, 500 μM tryptophan, ratio of QA formed with compound versus wells with no compound (DMSO)
T1 construct: endogenous in cells; host or cells: primary mouse hepatocytes (frozen, commercial)
Protocol: Frozen primary mouse hepatocytes were thawed as per manufacturer's instructions and seeded at a density of 300,000 cells/well of a 6-well plate. After resting for a few hours, the cells were incubated with 3 μM of compound resuspended in DMSO in serum-free William's E media supplemented with 500 μM of tryptophan for six hours. After six hours, the cells were washed with phosphate buffer saline (PBS) and harvested in pre-cooled crashing solution (acetonitrile:methanol:water (40%:40%:20% w/w)) containing internal standard (telmisartan and/or verapamil). Ammonium bicarbonate (15%; 30 μL) was added to the lysates, incubated on dry ice for 10 min, centrifuged for 10 min at 14000 rpm and QA levels were quantified using optimized LC-MS/MS methods using an Atlantis, T3 3 μm, 150×4.6 mm column, and 0.1% formic acid in water and 0.2% formic acid in methanol as mobile phase A and B, respectively. The results are shown in Table 1 as a ratio of the amount of QA formed with compound versus the amount of QA in wells with no compound (DMSO). ACMSD is at the junction of the metabolic pathway of tryptophan. Increased QA levels or decreased PA levels would both be indicative of inhibition of ACMSD. When mouse hepatocytes are treated with the compounds of the invention, increased QA levels are observed and are therefore inhibitors of ACMSD.

T1 sequence (Q8R519 whole entry): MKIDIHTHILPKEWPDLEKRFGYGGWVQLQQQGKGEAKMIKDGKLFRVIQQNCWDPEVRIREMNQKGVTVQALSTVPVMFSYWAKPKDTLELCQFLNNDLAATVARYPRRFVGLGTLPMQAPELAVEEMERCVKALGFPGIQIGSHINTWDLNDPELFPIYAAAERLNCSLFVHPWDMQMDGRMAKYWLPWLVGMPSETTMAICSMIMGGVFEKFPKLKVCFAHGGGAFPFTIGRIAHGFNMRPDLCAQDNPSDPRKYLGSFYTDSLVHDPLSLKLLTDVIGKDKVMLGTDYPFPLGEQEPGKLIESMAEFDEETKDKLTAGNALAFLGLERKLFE

| Quinolinic acid ratio (Range) | Compound |
| --- | --- |
| ** (<4 to 6) | N#Cc1c(SCc2nnn[nH]2)[nH]c(=O)c(C(=O)Nc2ccccc2)c1-c1ccc(Cl)cc1 [Compound 124, 6-(((1H-tetrazol-5-yl)methyl)thio)-4-(4-chlorophenyl)-5-cyano-2-oxo-N-phenyl-1,2-dihydropyridine-3-carboxamide] |
| ** (<4 to 6) | N#Cc1c(SCc2nnn[nH]2)[nH]c(=O)c(C(=O)N2CCCC2)c1-c1ccc(Cl)cc1 [Compound 125, 2-(((1H-tetrazol-5-yl)methyl)thio)-4-(4-chlorophenyl)-6-oxo-5-(pyrrolidine-1-carbonyl)-1,6-dihydropyridine-3-carbonitrile] |
| ** (<4 to 6) | N#Cc1c(SCc2nnn[nH]2)[nH]c(=O)c(C(=O)N2CCCC2)c1-c1cccc(-c2ccccc2)c1 [Compound 126, 2-(((1H-tetrazol-5-yl)methyl)thio)-4-([1,1′-biphenyl]-3-yl)-6-oxo-5-(pyrrolidine-1-carbonyl)-1,6-dihydropyridine-3-carbonitrile] |
| * (2 to 4) | CNC(=O)c1c(-c2ccc(Cl)cc2)c(C#N)c(SCc2nnn[nH]2)[nH]c1=O [Compound 127, 6-(((1H-tetrazol-5-yl)methyl)thio)-4-(4-chlorophenyl)-5-cyano-N-methyl-2-oxo-1,2-dihydropyridine-3-carboxamide] |
| — (<2) | CC(C)Oc1nc(SCc2nnn[nH]2)[nH]c(=O)n1 [Compound 133, 6-(((1H-tetrazol-5-yl)methyl)thio)-4-isopropoxy-1,3,5-triazin-2(1H)-one] |

More lines, now with the values behind:

| Compound | Quinolinic acid ratio (Range) |
| --- | --- |
| N#Cc1c(SCc2nnn[nH]2)[nH]c(=O)c(Cl)c1-c1cccc(C(=O)Nc2ccccc2)c1 [Compound 123, 3-(6-(((1H-tetrazol-5-yl)methyl)thio)-3-chloro-5-cyano-2-oxo-1,2-dihydropyridin-4-yl)-N-phenylbenzamide] | ** (<4 to 6) |
| O=C(O)c1cccc(CSc2nc(-c3ccccc3)nc(=O)[nH]2)c1 [Compound 128, 3-(((6-oxo-4-phenyl-1,6-dihydro-1,3,5-triazin-2-yl)thio)methyl)benzoic acid] | * (2 to 4) |
| N#Cc1c(-c2ccccc2)nc(=O)[nH]c1SCC(=O)O [Compound 131, 2-((5-cyano-2-oxo-6-phenyl-2,3-dihydropyrimidin-4-yl)thio)acetic acid] | * (2 to 4) |
